PubChem BioAssay (NCI)
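Grown in 96-well plates, cells were treated for 48 hours with each compound at five concentrations. Insufficient inhibition: endpoint recorded as highest concentration tested. The concentration for 50% growth inhibition is given as GI50. TGI: total growth inhibition.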

What was measured:
Assay in all cases: DTP human tumour cell line panel, 48 h
MCF7 breast = tested on: MCF7 breast
HOP-92 NSCLC = tested on: HOP-92 NSCLC
HT29 colon = tested on: HT29 colon
UACC-257 melanoma = tested on: UACC-257 melanoma
MDA-MB-435 = tested on: MDA-MB-435
HCT-15 colon = tested on: HCT-15 colon
UACC-62 melanoma = tested on: UACC-62 melanoma
786-0 renal = tested on: 786-0 renal
T-47D breast = tested on: T-47D breast
SF-295 CNS = tested on: SF-295 CNS

Structure (SMILES): O=C(c1ccncc1)N1CCN(C2=NS(=O)(=O)c3ccccc3N2c2ccccc2)CC1
- GI50 (MCF7 breast): 7.39 µM
- TGI (MCF7 breast): > 100 µM
- GI50 (HOP-92 NSCLC): 4.07 µM
- TGI (HOP-92 NSCLC): 21.4 µM
- GI50 (HT29 colon): 19 µM
- TGI (HT29 colon): 57.8 µM
- GI50 (UACC-257 melanoma): 21.7 µM
- TGI (UACC-257 melanoma): 63.8 µM
- GI50 (MDA-MB-435): 18.9 µM
- TGI (MDA-MB-435): 40 µM
- GI50 (HCT-15 colon): > 100 µM
- TGI (HCT-15 colon): > 100 µM
- GI50 (UACC-62 melanoma): 7.99 µM
- TGI (UACC-62 melanoma): 21.6 µM
- GI50 (786-0 renal): 7.37 µM
- TGI (786-0 renal): 37.2 µM
- GI50 (T-47D breast): 10.9 µM
- TGI (T-47D breast): 57.5 µM
- GI50 (SF-295 CNS): 9.87 µM
- TGI (SF-295 CNS): > 100 µM

Structure (SMILES): CC#CC(=O)N[C@H]1CCCN(c2c(F)cc(C(N)=O)c3[nH]c(C)c(C)c23)C1
- GI50 (MCF7 breast): 17.3 µM
- TGI (MCF7 breast): 36 µM
- GI50 (HOP-92 NSCLC): 15.6 µM
- TGI (HOP-92 NSCLC): 64.7 µM
- GI50 (HT29 colon): 25 µM
- TGI (HT29 colon): 72.3 µM
- GI50 (UACC-257 melanoma): 14.5 µM
- TGI (UACC-257 melanoma): 34.9 µM
- GI50 (MDA-MB-435): 16.6 µM
- TGI (MDA-MB-435): 34 µM
- GI50 (HCT-15 colon): 15.9 µM
- TGI (HCT-15 colon): 32.9 µM
- GI50 (UACC-62 melanoma): 14.4 µM
- TGI (UACC-62 melanoma): 28.5 µM
- GI50 (786-0 renal): 19 µM
- TGI (786-0 renal): 56.6 µM
- GI50 (T-47D breast): 13.6 µM
- TGI (T-47D breast): 44.3 µM
- GI50 (SF-295 CNS): 27.3 µM
- TGI (SF-295 CNS): 74.5 µM

Structure (SMILES): COc1cc([N+](=O)[O-])c(OC)cc1-c1nc2n(c1/C(N)=N/C(=N)N)CCS2
- GI50 (MCF7 breast): > 100 µM
- TGI (MCF7 breast): > 100 µM
- GI50 (HOP-92 NSCLC): 41.9 µM
- TGI (HOP-92 NSCLC): > 100 µM
- GI50 (HT29 colon): > 100 µM
- TGI (HT29 colon): > 100 µM
- GI50 (UACC-257 melanoma): 15.9 µM
- TGI (UACC-257 melanoma): 57 µM
- GI50 (MDA-MB-435): > 100 µM
- TGI (MDA-MB-435): > 100 µM
- GI50 (HCT-15 colon): > 100 µM
- TGI (HCT-15 colon): > 100 µM
- GI50 (UACC-62 melanoma): 75.5 µM
- TGI (UACC-62 melanoma): > 100 µM
- GI50 (786-0 renal): 25.1 µM
- TGI (786-0 renal): > 100 µM
- GI50 (T-47D breast): 86.8 µM
- TGI (T-47D breast): > 100 µM
- GI50 (SF-295 CNS): 37.6 µM
- TGI (SF-295 CNS): > 100 µM

Structure (SMILES): CCCCC/C=C\C/C=C/CCCCCCCCNC(=O)Nc1ccc([N+](=O)[O-])cc1
- GI50 (MCF7 breast): 23.7 µM
- TGI (MCF7 breast): > 100 µM
- GI50 (HOP-92 NSCLC): 4.27 µM
- TGI (HOP-92 NSCLC): 35.4 µM
- GI50 (HT29 colon): 25.1 µM
- TGI (HT29 colon): > 100 µM
- GI50 (UACC-257 melanoma): 40.7 µM
- TGI (UACC-257 melanoma): > 100 µM
- GI50 (MDA-MB-435): 8.21 µM
- TGI (MDA-MB-435): > 100 µM
- GI50 (HCT-15 colon): 8.81 µM
- TGI (HCT-15 colon): > 100 µM
- GI50 (UACC-62 melanoma): 2.9 µM
- TGI (UACC-62 melanoma): > 100 µM
- GI50 (786-0 renal): 29.5 µM
- TGI (786-0 renal): > 100 µM
- GI50 (T-47D breast): 22.7 µM
- TGI (T-47D breast): > 100 µM
- GI50 (SF-295 CNS): 4.96 µM
- TGI (SF-295 CNS): > 100 µM

Structure (SMILES): Cc1ccc2nc(CC(=O)c3ccc4ccccc4c3)c(=O)[nH]c2c1
- TGI (MCF7 breast): > 100 µM
- TGI (HOP-92 NSCLC): > 100 µM
- TGI (HT29 colon): > 100 µM
- TGI (UACC-257 melanoma): > 100 µM
- TGI (MDA-MB-435): > 100 µM
- TGI (HCT-15 colon): > 100 µM
- TGI (UACC-62 melanoma): > 100 µM
- TGI (786-0 renal): > 100 µM
- TGI (T-47D breast): > 100 µM
- TGI (SF-295 CNS): > 100 µM

Structure (SMILES): C/C=C(\C)C(=O)OC1C2C(C)C(=O)OC2C(O)C(C)C2C=CC(=O)C21C (stereo not given)
- TGI (MCF7 breast): 21.6 µM
- TGI (HOP-92 NSCLC): 50.5 µM
- TGI (HT29 colon): 32 µM
- TGI (UACC-257 melanoma): 30.2 µM
- TGI (MDA-MB-435): 26.1 µM
- TGI (HCT-15 colon): 34.5 µM
- TGI (UACC-62 melanoma): 26.1 µM
- TGI (786-0 renal): 30.3 µM
- TGI (T-47D breast): 43.3 µM
- TGI (SF-295 CNS): 32.7 µM

Structure (SMILES): NCC(=O)NC(CO)C(=O)O (stereo not given)
- TGI (MCF7 breast): > 100 µM
- TGI (HOP-92 NSCLC): > 100 µM
- TGI (HT29 colon): > 100 µM
- TGI (UACC-257 melanoma): > 100 µM
- TGI (MDA-MB-435): > 100 µM
- TGI (HCT-15 colon): > 100 µM
- TGI (UACC-62 melanoma): > 100 µM
- TGI (786-0 renal): > 100 µM
- TGI (T-47D breast): > 100 µM
- TGI (SF-295 CNS): > 100 µM

Structure (SMILES): Nc1nc(Cl)nc2c1ncn2C1CCC(COP(=O)(O)OP(=O)(O)OP(=O)(O)O)O1 (stereo not given)
- TGI (MCF7 breast): > 100 µM
- TGI (HOP-92 NSCLC): 66.6 µM
- TGI (HT29 colon): 90.9 µM
- TGI (UACC-257 melanoma): > 100 µM
- TGI (MDA-MB-435): 58.1 µM
- TGI (HCT-15 colon): 79.3 µM
- TGI (UACC-62 melanoma): 47.9 µM
- TGI (786-0 renal): > 100 µM
- TGI (T-47D breast): > 100 µM
- TGI (SF-295 CNS): 58.4 µM

Structure (SMILES): CS(=O)(=O)N(CC(=O)O)Cc1ccccc1
- TGI (MCF7 breast): > 100 µM
- TGI (HOP-92 NSCLC): > 100 µM
- TGI (HT29 colon): > 100 µM
- TGI (UACC-257 melanoma): > 100 µM
- TGI (MDA-MB-435): > 100 µM
- TGI (HCT-15 colon): > 100 µM
- TGI (UACC-62 melanoma): > 100 µM
- TGI (786-0 renal): > 100 µM
- TGI (T-47D breast): > 100 µM
- TGI (SF-295 CNS): > 100 µM
